Test results from patent US8212036B2, “Maleate salts of 6-(5-chloro-2-pyridyl)-5-[(4-methyl-1-piperazinyl)carbonyloxy]-7-oxo-6,7-dihydro-5H-pyrrolo[3,4-b]pyrazine” (Sunovion Pharmaceuticals Inc., priority 2007, dated 2012).

How the values were obtained:
Type in all cases: physicochemical
[1] = Aqueous solubility (24 hour equilibrated suspension in water, HPLC); details: for pH measured at saturation: saturated suspension in water
Procedure: The aliquot was diluted and analyzed by HPLC (Waters). The data was compared to a standard curve generated from a set of solutions of known concentrations. The standard curve and the samples were analyzed using a HPLC using the following conditions: […]

[2] = Intrinsic dissolution, USP 28 method <1087>; details: isotonic 50 mM acetate (pH 4.5) buffer at 37° C., 50 rpm
Procedure: The intrinsic dissolution (Table 3) was determined using USP 28 method <1087> (United States Pharmacopeia, The National Formulary, USP 28, 28th edition, Rockville, […]., 2005). Preparation of each test sample was performed as per USP 28 method <1087> by weighing and transferring the material to the die cavity and compressing for 1 minute at the minimum compression pressure necessary to form a nondisintegrating compacted pellet. The dissolution media used was isotonic 50 mM acetate buffer (pH 4.5) at 37° C. and speed was set at 50 rpm. Each run was halted at 5 min, irrespective of the percent dissolved. Each salt was run in duplicate.

[3] = Tablet dissolution over time at various pH; details: for Dependence of dissolution on pH: oral dosage form, media pH 1 to 6.8 and deionized water
Procedure: Dissolution over time of eszopiclone free base at various pHs (FIG. 1) was compared to that of eszopiclone maleate salt (FIG. 2) in dissolution media at various pH values using Hanson Research SR8-Plus Dissolution Apparatus and C-Technologies Fiber Optic UV Probes at 305 nm (excipients subtracted at 410 nm). The dissolution media used were (a) pH 1 (0.1N HCl) 50 ml of conc HCl mixed in 6 L of water; (b) pH 4.5 acetate buffer (20 mM) 5.88 g of sodium acetate trihydrate dissolved in 6 L of water, pH adjusted to 4.5 with acetic acid; (c) pH 5.5 phosphate buffer (20 mM) 16.3 g of potassium dihydrogen phosphate in 6 L of water. pH adjusted to 5.5 with NaOH; (d) pH 6.8 phosphate buffer (20 mM) 16.3 g of potassium dihydrogen phosphate in 6 L of water. pH adjusted 6.8 with NaOH. A standard dissolution protocol was used. The standard solution (0.006 mg/mL of eszopiclone free base) was prepared by weighing a known amount (˜20 mg) of the free base into a 100 mL volumetric flask. 10 mL of acetonitrile was added into the flask and sonicated until the solids dissolved completely. The solution was cooled to room temperature and made up to the 100 mL mark using media and mixed well. Dilute 3 mL to 100 mL using media. The tables were prepared by transferring 500 mL dissolution media into the 6 vessels. Blank readings were taken for all the probes using media. Standards were read for individual vessels. Probes were washed with media and then inserted back into each vessel. One tablet was transferred into each vessel. The dissolution program was started immediately and readings were taken at 305 nm for 60 min (every 1 min for 20 min and then every 10 min).
FIG. 1 depicts dissolution profiles of the eszopiclone free base at pH 1 (0.1N HCl), pH 4.5 in buffer, pH 5.5 in buffer, pH 6.8 in buffer and in deionized water. […] FIG. 2 depicts dissolution profiles of the eszopiclone maleate salt at pH 1 (0.1N HCl), pH 4.5 in buffer, pH 5.5 in buffer, pH 6.8 in buffer and in deionized water. It can be seen that the dissolution is greater than 50% within five minutes and greater than 80% at one hour at all pH.

[4] = all pH (pH 1, 4.5, 5.5, 6.8, deionized water)

Row | Structure (SMILES) | pH measured at saturation [1] | Solubility ([1]; water, 24 hour at ambient) | Intrinsic dissolution Average [2] [mgA/cm^2/min] | Intrinsic dissolution Run 1 [2] [mgA/cm^2/min] | Intrinsic dissolution Run 2 [2] [mgA/cm^2/min] | Part of tablet dissolved at one hour ([3]; deionized water) | Dependence of dissolution on pH [3] | Dissolution of tablet ([3]; pH 1 (0.1N HCl)) | Part of tablet dissolved at one hour ([3]; pH 6.8 buffer) | solubility thermodynamic at 24 h ([1]; water, 24 hour at ambient) [µg/mL] | Dissolution at one hour [3, 4] | Dissolution within five minutes [3, 4]
1 | CN1CCN(C(=O)O[C@H]2c3nccnc3C(=O)N2c2ccc(Cl)cn2)CC1 [Free base, [(9S)-8-(5-chloropyridin-2-yl)-7-oxo-2,5,8-triazabicyclo[4.3.0]nona-1,3,5-trien-9-yl]4-methyl piperazine-1-carboxylate] | 7.6 | 0.2^1 mgA/mL | 0.5 | 0.6 | 0.5 | less than one half | decreases markedly as the pH rises | rapid and complete | less than one half | – | – | –
2 | CN1CCN(C(=O)O[C@H]2c3nccnc3C(=O)N2c2ccc(Cl)cn2)CC1.O=C(O)/C=C\C(=O)O [Maleate, (S)-Zopiclone Maleate] | 4.4 | – | 1.3 | 1.4 | 1.2 | – | dissolve quickly and at substantially the same rate, regardless of the pH | – | – | 9000 | greater than 80% | greater than 50%
